Patent US20240417370A1, “LIPIDS FOR USE IN LIPID NANOPARTICLE FORMULATIONS” (Acuitas Therapeutics, Inc., priority 2023, published 2024)

System: human IgG in mouse serum
Experiment: Immunoglobulin G (IgG) mRNA in vivo evaluation using lipid nanoparticle compositions
Set-up: species or system mice
Details: LNP-formulated lipid, tail vein injection, μg IgG/mL serum 24 hours after administration; for Serum IgG @ 0.3 mg/kg: 0.3 mg mRNA/kg; for Serum IgG @ 1.0 mg/kg: 1.0 mg mRNA/kg
Description: A lipid of structure (I), DSPC, cholesterol and PEG-lipid are solubilized in ethanol at a molar ratio of 50:10:38.5:1.5 or 47.5:10:40.7:1.8. Lipid nanoparticles (LNP) are prepared at a total lipid to mRNA weight ratio of approximately 10:1 to 40:1. Briefly, the mRNA is diluted to 0.2 mg/mL in 10 to 50 mM citrate buffer, pH 4 to 6 or 10 to 25 mM acetate buffer, pH 4 to 6. Syringe pumps are used to mix the ethanolic lipid solution with the mRNA aqueous solution at a ratio of about 1:5 to 1:3 (vol/vol) with total flow rates above 15 mL/min. The ethanol is then removed, and the external buffer replaced with PBS by dialysis. Finally, the lipid nanoparticles are filtered through a 0.2 µm pore sterile filter.
Studies are performed in 6-8-week-old CD-1/ICR mice (Envigo, Charles River, or Inotiv) according to guidelines established by an institutional animal care committee (ACC) and the Canadian Council on Animal Care (CCAC). Varying doses of mRNA-lipid nanoparticle are systemically administered by tail vein injection and animals euthanized at a specific time point (e.g., 24 hours) post-administration. The whole blood is collected, and the serum subsequentially separated by centrifuging the tubes of the whole blood at 2000×g for 10 minutes at 4° C. and stored at −80° C. until use for analysis.
For immunoglobulin G (IgG) ELISA (Life Diagnostics Human IgG ELISA kit), the serum samples are diluted at 100 to 20,000 folds with 1× diluent solution. 100 μL of diluted serum is dispensed into anti-human IgG coated 96-well plate in duplicate alongside human IgG standards and incubated in a plate shaker at 150 rpm at 25° C. for 45 minutes. The wells are washed 5 times with 1× wash solution using a plate washer (400 μL/well). 100 μL of HRP conjugate is added into each well and incubated in a plate shaker at the same condition above. The wells are washed 5 times again with 1× wash solution using a plate washer (400 μL/well). 100 μL of TMB reagent is added into each well and incubated in a plate shaker at the same condition above. The reaction is stopped by adding 100 μL of Stop solution to each well. The absorbance is read at 450 nm (A450) with a microplate reader. The amount of human IgG in mouse serum is determined by plotting A450 values for the assay standard against human IgG concentration.
Representative compounds of the disclosure shown in Table 2 were formulated using the following molar ratio: 50% cationic lipid/10% distearoylphosphatidylcholine (DSPC)/38.5% Cholesterol/1.5% PEG lipid 2-[2-(ω-methoxy(polyethyleneglycol2000)ethoxy]-N,N-ditetradecylacetamide) or 47.5% cationic lipid/10% DSPC/40.7% Cholesterol/1.8% PEG lipid. Relative activity was determined by measuring luciferase expression in the liver 4 hours following administration via tail vein injection as described in Example 1 or by measuring the amount of human IgG in mouse serum as described in example 2. The activity was compared at a dose of 1.0 or 0.5 or 0.3 mg mRNA/kg and expressed as ng luciferase/g liver measured 4 hours after administration, as described in Example 1 or as μg IgG/mL serum measured 24 hours after administration, as described in Example 2. Compound numbers in Table 2 refer to the compound numbers of Table 1.

Row | SMILES | Serum IgG @ 0.3 mg/kg [µg/mL] | Serum IgG @ 1.0 mg/kg [µg/mL]
1 | C=CCCCCCCCCN(CCCCCCCCC=C)C(=O)CCCCCCCN(CCCCCCCC(=O)N(CCCCCCCCC=C)CCCCCCCCC=C)[C@H]1CC[C@@H](O)CC1 [(1S, 4S) I-53, 8,8′-(((1s,4s)-4-hydroxycyclohexyl)azanediyl)bis(N,N-di(dec-9-en-1-yl)octanamide)] | 81.56 ± 44.40 | 
2 | CCCCCCCCCCCCN(CCCCCC)C(=O)CCCCCCCN(CCCCCCCC(=O)N(CCCCCC)CCCCCCCCCCCC)[C@H]1CC[C@@H](O)CC1 [(1S, 4S) I-52] | 40.24 ± 18.53 | 
3 | CCCCCCCCCCN(CCCCCCCCCC)C(=O)CCCCCCCN(CCCCCCCC(=O)N(CCCC)C(CCCCCCCC)CCCCCCCC)[C@H]1CC[C@@H](O)CC1 [(1S, 4S) I-59, N-butyl-8-((8-(didecylamino)-8-oxooctyl)((1s,4s)-4-hydroxycyclohexyl)amino)-N-(heptadecan-9-yl)octanamide] | 84.23 ± 17.22 | 
4 | CCCCCCCCCCN(CCCCCCCCCC)C(=O)CCCCCCCN(CCCCCCCC(=O)N(CCCCCCCCCC)CCCCCCCCCC)C1CCC(O)CC1 (stereo not drawn) [Compound I-9, 8,8′-((4-hydroxycyclohexyl)azanediyl)bis(N,N-didecyloctanamide)] | 35.77 ± 4.50 | 
5 | CCCCCCCCCCN(CCCCCCCCCC)C(=O)CCCCCCCCCN(CCCCCC(=O)N(CCCCCCCCCC)CCCCCCCCCC)[C@H]1CC[C@@H](O)CC1 [(15, 4S) I-61, N,N-didecyl-10-((6-(didecylamino)-6-oxohexyl)((1s,4s)-4-hydroxycyclohexyl)amino)decanamide] | 40.66 ± 9.70 | 
6 | CCCCCCCCCCCCN(CCCCCCCC)C(=O)CCCCCCCN(CCCCCCCC(=O)N(CCCCCCCC)CCCCCCCCCCCC)[C@H]1CC[C@@H](O)CC1 [(1S, 4S) I-62, 8,8′-(((1s,4s)-4-hydroxycyclohexyl)azanediyl)bis(N-dodecyl-N-octyloctanamide)] | 48.49 ± 8.83 | 
7 | CCCCCCCCCCN(CCCCCCCCCC)C(=O)CCCCCCCN(CCCCCCCC(=O)N(CCCCCCCCCC)CCCCCCCCCC)[C@@H]1CC[C@H](O)C1 (racemic) [(rac)-(1RS, 3SR) I-14, 8,8′-(((1r,3s)-3-hydroxycyclopentyl)azanediyl)bis(N,N-didecyloctanamide); 8,8′-(((1s,3r)-3-hydroxycyclopentyl)azanediyl)bis(N,N-didecyloctanamide)] | 15.74 ± 5.71 | 66.16 ± 16.66
8 | CCCCCCCCCCN(CCCCCCCCCC)C(=O)CCCCCCCN(CCCCCCCC(=O)N(CCCCCCCCCC)CCCCCCCCCC)C1CC2(CC(O)C2)C1 (stereo not drawn) [Compound I-36, 8,8′-((6-hydroxyspiro[3.3]heptan-2-yl)azanediyl)bis(N,N-didecyloctanamide)] | 25.76 ± 8.65 | 171.89 ± 45.93
9 | CCCCCCCCCCN(CCCCCCCCN(CCCCCCCCN(CCCCCCCCCC)C(=O)CCCCCCCCC)C[C@H]1C[C@@H](O)C1)C(=O)CCCCCCCCC [(1S, 3S) I-22, N,N′-(((((1S,3S)-3-hydroxycyclobutyl)methyl)azanediyl)bis(octane-8,1-diyl))bis(N-decyldecanamide)] | 50.48 ± 11.93 | 
10 | CCCCCCCCCCN(CCCCCCCCCC)C(=O)CCCCCCCN(CCCCCCCC(=O)N(CCCCCCCCCC)CCCCCCCCCC)[C@@H]1CC[C@@H](O)C1 (racemic) [(rac)-(1RS, 3RS) I-14, 8,8′-(((1r,3r)-3-hydroxycyclopentyl)azanediyl)bis(N,N-didecyloctanamide); 8,8′-(((1s,3s)-3-hydroxycyclopentyl)azanediyl)bis(N,N-didecyloctanamide)] | 11.48 ± 1.87 | 45.96 ± 11.03
11 | CCCCCCCCCCN(CCCCCCCCCC)C(=O)C(F)CCCCCCN(CCCCCCC(F)C(=O)N(CCCCCCCCCC)CCCCCCCCCC)[C@H]1CC[C@@H](O)CC1 (stereo partly drawn) [(1S, 4S) I-49, 8,8′-(((1s,4s)-4-hydroxycyclohexyl)azanediyl)bis(N,N-didecyl-2-fluorooctanamide)] | 60.49 ± 26.40 | 332.8 ± 57.13
12 | C=CCCCCCCCCN(CCCCCCCCCC)C(=O)CCCCCCCN(CCCCCCCC(=O)N(CCCCCCCCC=C)CCCCCCCCCC)[C@H]1CC[C@@H](O)CC1 [(1S, 4S) I-51, 8,8′-(((1s,4s)-4-hydroxycyclohexyl)azanediyl)bis(N-(dec-9-en-1-yl)-N-decyloctanamide)] | 80.37 ± 26.77 | 
13 | CCCCCCCCCCN(CCCCCCCCCC)C(=O)CCCCCCCN(CCCCCCCC(=O)N(CCCCCCCCCC)CCCCCCCCCC)[C@H]1C[C@@H](O)C1 [(1S, 3S) I-10, 8,8′-(((1S,3S)-3-hydroxycyclobutyl)azanediyl)bis(N,N-didecyloctanamide)] | 27.62 ± 9.67 | 187.67 ± 66.41
14 | CCCCCCCCCCN(CCCCCCCCCC)C(=O)CCCCCCCN(CCCCCCCC(=O)N(CCCCCCCCCC)CCCCCCCCCC)[C@H]1CC[C@@H](CO)CC1 [(1S, 4S) I-23, 8,8′-(((1S,4S)-4-(hydroxymethyl)cyclohexyl)azanediyl)bis(N,N-didecyloctanamide)] | 34.48 ± 9.25 | 273.72 ± 52.70
15 | CCCCCCCCCCN(CCCCCCCCCC)C(=O)CCCCCCCN(CCCCCCCC(=O)N(CCCCCCCCCC)CCCCCCCCCC)[C@H]1CC[C@H](CO)CC1 [(1R, 4R) I-23, 8,8′-(((1R,4R)-4-(hydroxymethyl)cyclohexyl)azanediyl)bis(N,N-didecyloctanamide)] | 5.15 ± 1.83 | 37.79 ± 6.41
16 | CCCCCCCCCCN(CCCCCCCCN(CCCCCCCC(=O)N(CCCCCCCCCC)CCCCCCCCCC)C[C@H]1C[C@@H](O)C1)C(=O)CCCCCCCCC [(1S, 3S) I-21, N-decyl-N-(8-((8-(didecylamino)-8-oxooctyl)(((1S,3S)-3-hydroxycyclobutyl)methyl)amino)octyl)decanamide] | 71.49 ± 12.31 | 
17 | CCCCCCCCCCN(CCCCCCCCN(CCCCCCCCN(CCCCCCCCCC)C(=O)CCCCCCCCC)C[C@H]1C[C@H](O)C1)C(=O)CCCCCCCCC [(1R, 3R) I-22, N,N′-(((((1R,3R)-3-hydroxycyclobutyl)methyl)azanediyl)bis(octane-8,1-diyl))bis(N-decyldecanamide)] | 19.88 ± 2.53 | 
18 | CCCCCCCCCCN(CCCCCCCCCC)C(=O)CCCCCCCN(CCCCCCCC(=O)N(CCCCCCCCCC)CCCCCCCCCC)[C@H]1C[C@H](O)C[C@H](O)C1 [(1s, 3R, 5S) I-34, 8,8′-(((1s,3r,5s)-3,5-dihydroxycyclohexyl)azanediyl)bis(N,N-didecyloctanamide)] | 7.06 ± 4.68 | 57.07 ± 24.86
19 | CCCCCCCCCCN(CCCCCCCCCC)C(=O)CCCCCCCN(CCCCCCCC(=O)N(CCCCCCCCCC)CCCCCCCCCC)[C@H]1CC[C@](C)(O)CC1 [(1R, 4R) I-25, 8,8′-(((1R,4R)-4-hydroxy-4-methylcyclohexyl)azanediyl)bis(N,N-didecyloctanamide)] | 14.03 ± 2.71 | 105.77 ± 19.44
20 | CCCCCCCCCC(CCCCCCCCC)NC(=O)CCCCCCCN(CCCCCCCC(=O)NC(CCCCCCCCC)CCCCCCCCC)[C@H]1CC[C@@H](O)CC1 [(1S, 4S) I-50, 8,8′-(((1s,4s)-4-hydroxycyclohexyl)azanediyl)bis(N-(nonadecan-10-yl)octanamide)] | 29.82 ± 7.79 | 
21 | CCCCCCCCCCN(CCCCCCCCCC)C(=O)CCCCCCCN(CCCCCCCC(=O)N(CCCCCCCCCC)CCCCCCCCCC)C[C@H]1C[C@@H]1CO (racemic) [(rac)-(1RS, 2RS) I-45, 8,8′-((((1s,2s)-2-(hydroxymethyl)cyclopropyl)methyl)azanediyl)bis(N,N-didecyloctanamide)] | 10.95 ± 4.31 | 
